{
  "source": "the C3SDB collision cross section collection",
  "note": "Where a name gives a salt, the structure may show the parent alone.",
  "data": [
    {"details": "[M+H-H2O]+; instrument: TW; calibrated with polyalanine and drug standards", "units": {"collision cross section (N2)": "Å²"}, "values": [
      {"smiles": "CNCC(O)c1ccc(O)cc1", "note": "(configuration not stated) [OXEDRINE]", "collision cross section (N2)": 132}
    ]},
    {"details": "[M+H]+; instrument: TW; calibrated with polyalanine and drug standards", "units": {"collision cross section (N2)": "Å²"}, "values": [
      {"smiles": "[O-][n+]1cccc(CO)c1", "note": "[MEPIROXOL]", "collision cross section (N2)": 120.4},
      {"smiles": "Nc1ccc(O)c(C(=O)O)c1", "note": "[MESALAMINE]", "collision cross section (N2)": 134.7},
      {"smiles": "CN1C[C@H](CNC(=O)OCc2ccccc2)C[C@@H]2c3cccc4c3c(cn4C)C[C@H]21", "note": "[METERGOLINE]", "collision cross section (N2)": 197.6},
      {"smiles": "C1N2CN3CN1CN(C2)C3", "note": "[METHENAMINE]", "collision cross section (N2)": 126.8},
      {"smiles": "COc1cc(C)c2c(=O)cc(-c3ccccc3)oc2c1", "note": "[METHOXYVONE]", "collision cross section (N2)": 156.5},
      {"smiles": "Cc1cc(=O)[nH]c(=S)[nH]1", "note": "[METHYLTHIOURACIL]", "collision cross section (N2)": 123.7},
      {"smiles": "COc1cc(OC)c(C(C)=O)c(O)c1C", "note": "[METHYLXANTHOXYLIN]", "collision cross section (N2)": 140.2},
      {"smiles": "Cc1cc2c(cc1S(N)(=O)=O)S(=O)(=O)CCC2", "note": "[METICRANE]", "collision cross section (N2)": 159.4},
      {"smiles": "Cc1ccccc1N1C(=O)c2cc(S(N)(=O)=O)c(Cl)cc2NC1C", "note": "(configuration not stated) [METOLAZONE]", "collision cross section (N2)": 181.2},
      {"smiles": "Cc1ncc([N+](=O)[O-])n1CCO", "note": "[METRONIDAZOLE]", "collision cross section (N2)": 130.4},
      {"smiles": "COC(=O)C[C@H]1C(C)(C)C(=O)[C@@H]2CC3=C4CC(=O)O[C@@H](c5ccoc5)[C@]4(C)CC[C@@H]3[C@@]1(C)C2=O", "note": "[MEXICANOLIDE]", "collision cross section (N2)": 203.9},
      {"smiles": "COc1c(C)c2c(c(O)c1C/C=C(\\C)CCC(=O)OCCN1CCOCC1)C(=O)OC2", "note": "[MYCOPHENOLATE MOFETIL]", "collision cross section (N2)": 197.3},
      {"smiles": "COc1c(C)c2c(c(O)c1C/C=C(\\C)CCC(=O)O)C(=O)OC2", "note": "[MYCOPHENOLIC ACID]", "collision cross section (N2)": 165.4},
      {"smiles": "CNc1ccccc1C(=O)O", "note": "[N-METHYLANTHRANILIC ACID]", "collision cross section (N2)": 125.9},
      {"smiles": "CC(C)(C)NCC(O)COc1cccc2c1C[C@H](O)[C@H](O)C2", "note": "(some centres not stated) [NADOLOL]", "collision cross section (N2)": 171.8},
      {"smiles": "CCn1cc(C(=O)O)c(=O)c2ccc(C)nc21", "note": "[NALIDIXIC ACID]", "collision cross section (N2)": 145.3},
      {"smiles": "NC(=O)c1cccnc1", "note": "[NIACINAMIDE]", "collision cross section (N2)": 121.7},
      {"smiles": "O=C(N/N=C/c1ccc([N+](=O)[O-])o1)c1ccc(O)cc1", "note": "[NIFUROXAZIDE]", "collision cross section (N2)": 154.4},
      {"smiles": "Cc1ncc(CNC(=O)N(CCCl)N=O)c(N)n1", "note": "[NIMUSTINE]", "collision cross section (N2)": 158.9},
      {"smiles": "CCOC(=O)C1=C(C)NC(C)=C(C(=O)OC)C1c1cccc([N+](=O)[O-])c1", "note": "(configuration not stated) [NITRENDIPINE]", "collision cross section (N2)": 181.9},
      {"smiles": "NC(=O)N/N=C/c1ccc([N+](=O)[O-])o1", "note": "[NITROFURAZONE]", "collision cross section (N2)": 138.6},
      {"smiles": "CCCCCCCCCc1ccc(OCCOCCOCCOCCOCCOCCOCCOCCOCCO)cc1", "note": "[NONOXYNOL-9]", "collision cross section (N2)": 245.8},
      {"smiles": "C#C[C@]1(OC(C)=O)CC[C@H]2[C@@H]3CCC4=CC(=O)CC[C@@H]4[C@H]3CC[C@@]21C", "note": "[NORETHINDRONE ACETATE]", "collision cross section (N2)": 186.3},
      {"smiles": "C#C[C@]1(O)CC[C@H]2[C@@H]3CCC4=CC(=O)CC[C@@H]4[C@H]3CC[C@@]21C", "note": "[NORETHINDRONE]", "collision cross section (N2)": 174.4},
      {"smiles": "CC1COc2c(N3CCN(C)CC3)c(F)cc3c(=O)c(C(=O)O)cn1c23", "note": "(configuration not stated) [OFLOXACIN]", "collision cross section (N2)": 188.5},
      {"smiles": "C[C@@H]1CN(c2c(F)c(F)c3c(=O)c(C(=O)O)cn(C4CC4)c3c2F)C[C@H](C)N1", "note": "[ORBIFLOXACIN]", "collision cross section (N2)": 196.7},
      {"smiles": "CCCCCCCCCCC[C@@H](C[C@@H]1OC(=O)[C@H]1CCCCCC)OC(=O)[C@H](CC(C)C)NC=O", "note": "[ORLISTAT]", "collision cross section (N2)": 241.2},
      {"smiles": "Cc1ncc([N+](=O)[O-])n1CC(O)CCl", "note": "(configuration not stated) [ORNIDAZOLE]", "collision cross section (N2)": 141.7},
      {"smiles": "Cc1cc(O)cc(O)c1C(=O)O", "note": "[ORSELLINIC ACID]", "collision cross section (N2)": 129.1},
      {"smiles": "C[C@@H]1O[C@@H](O[C@H]2C[C@@H](O)[C@]3(CO)[C@H]4[C@H](O)C[C@]5(C)[C@@H](C6=CC(=O)OC6)CC[C@]5(O)[C@@H]4CC[C@]3(O)C2)[C@H](O)[C@H](O)[C@H]1O", "note": "[OUABAIN]", "collision cross section (N2)": 234},
      {"smiles": "O=C(O)CCc1nc(-c2ccccc2)c(-c2ccccc2)o1", "note": "[OXAPROZIN]", "collision cross section (N2)": 169.7},
      {"smiles": "NC(=O)N1c2ccccc2CC(=O)c2ccccc21", "note": "[OXCARBAZEPINE]", "collision cross section (N2)": 152.7},
      {"smiles": "CCN(CC)CCOCCOC(=O)C(CC)(CC)c1ccccc1", "note": "[OXELAIDIN CITRATE]", "collision cross section (N2)": 178.3},
      {"smiles": "COC(=O)Nc1nc2ccc(S(=O)c3ccccc3)cc2[nH]1", "note": "(configuration not stated) [OXFENDAZOLE]", "collision cross section (N2)": 174.1},
      {"smiles": "CCCOc1ccc2nc(NC(=O)OC)[nH]c2c1", "note": "[OXIBENDAZOLE]", "collision cross section (N2)": 157.5},
      {"smiles": "CCn1cc(C(=O)O)c(=O)c2cc3c(cc21)OCO3", "note": "[OXOLINIC ACID]", "collision cross section (N2)": 149.1},
      {"smiles": "CC(=O)OC1C(=O)C2(C)C(O)CC3OCC3(OC(C)=O)C2C(OC(=O)c2ccccc2)C2(O)CC(OC(=O)C(O)C(NC(=O)c3ccccc3)c3ccccc3)C(C)=C1C2(C)C", "note": "(configuration not stated) [PACLITAXEL]", "collision cross section (N2)": 278.9},
      {"smiles": "COc1ccc(-c2cc(=O)c3c(O)c(OC)c(O[C@@H]4O[C@H](CO[C@@H]5O[C@@H](C)[C@H](O)[C@@H](O)[C@H]5O)[C@@H](O)[C@H](O)[C@H]4O)cc3o2)cc1", "note": "[PECTOLINARIN]", "collision cross section (N2)": 236.5},
      {"smiles": "N#Cc1ccc2c(c1)N(CCCN1CCC(O)CC1)c1ccccc1S2", "note": "[PERICIAZINE]", "collision cross section (N2)": 186.6},
      {"smiles": "CO[C@H]1[C@H](O)[C@H](O[C@H]2CC[C@@]3(C=O)[C@H](CC[C@@H]4[C@@H]3CC[C@]3(C)[C@@H](C5=CC(=O)OC5)CC[C@]43O)C2)O[C@@H](C)[C@@H]1O", "note": "[PERUVOSIDE]", "collision cross section (N2)": 239.4},
      {"smiles": "NC(=O)NC(=O)Cc1ccccc1", "note": "[PHENACEMIDE]", "collision cross section (N2)": 128.3},
      {"smiles": "O=C1c2ccccc2C(=O)C1c1ccccc1", "note": "[PHENINDIONE]", "collision cross section (N2)": 145.9},
      {"smiles": "OCCc1ccccc1", "note": "[PHENYLETHYL ALCOHOL]", "collision cross section (N2)": 121.2},
      {"smiles": "O=C(CCc1ccc(O)cc1)c1c(O)cc(O)cc1O", "note": "[PHLORETIN]", "collision cross section (N2)": 160.7},
      {"smiles": "O=C(O)c1ccccc1C(=O)Nc1ccc(S(=O)(=O)Nc2nccs2)cc1", "note": "[PHTHALYLSULFATHIAZOLE]", "collision cross section (N2)": 194.9},
      {"smiles": "CC1=C(C/C=C(\\C)CCC[C@H](C)CCC[C@H](C)CCCC(C)C)C(=O)c2ccccc2C1=O", "note": "[PHYTONADIONE]", "collision cross section (N2)": 220},
      {"smiles": "CC(C)NCC(O)COc1cccc2[nH]ccc12", "note": "(configuration not stated) [PINDOLOL]", "collision cross section (N2)": 157.6}
    ]},
    {"details": "[M+Na]+; instrument: TW; calibrated with polyalanine and drug standards", "units": {"collision cross section (N2)": "Å²"}, "values": [
      {"smiles": "COC(=O)CC[C@@H](C)[C@H]1CC[C@H]2[C@@H]3CC[C@@H]4C[C@H](O)CC[C@]4(C)[C@H]3C[C@H](O)[C@]12C", "note": "[METHYL DEOXYCHOLATE]", "collision cross section (N2)": 199.1},
      {"smiles": "CC(=O)N[C@H]1C(O)O[C@H](CO)[C@@H](O)[C@@H]1O[C@H](C)C(=O)O", "note": "(some centres not stated) [N-ACETYLMURAMIC ACID]", "collision cross section (N2)": 164.8},
      {"smiles": "CC(=O)N[C@H]1[C@H]([C@H](O)[C@H](O)CO)O[C@](O)(C(=O)O)C[C@@H]1O", "note": "[N-ACETYLNEURAMIC ACID]", "collision cross section (N2)": 166.6},
      {"smiles": "O=C(CCc1ccc(O)cc1)c1c(O)cc(O)cc1O[C@@H]1O[C@H](CO)[C@@H](O)[C@H](O)[C@H]1O", "note": "[PHLORIDZIN]", "collision cross section (N2)": 194.4}
    ]}
  ]
}
